From patent US20250382346A1, “NEURONAL PROMOTERS AND USES THEREOF” (priority 2023, published 2025)

What was measured:
hM3Dq [1] = target: T1, hM3Dq (Homo sapiens, UniProt P20309, A239G/Y149C); experiment: Striatal slice whole-cell recordings of retrogradely labeled D1-MSNs, hM3Dq; type: cell-based, mice; details: AAV8R12-G88P3-HA-hM3Dq-2A-EYFP; CNO 10 μM; basal firing rate and resting membrane potential unaffected
T1 construct: expressed in transfected cells; host or cells: neurons of C57BL/6J mice or of macaques, transduced in vivo by nigral AAV8R12-G88P3-HA-hM3Dq
Excerpt: Mice from different groups were anesthetized with […] isoflurane, and then decapitated. The brain was quickly extracted and placed in ice-cold N-methyl-D-glucamine (NMDG) cutting solution containing (in mM): 92 NMDG, 2.5 KCl, 25 NaHCO3, 1.25 NaH2PO4, 4.5 D-Glucose, 20 HEPES, 5 L-ascorbic acid, 3 Na-pyruvate, 2 Thiourea, 10 MgSO4, 0.5 CaCl2). The pH was adjusted to 7.2±0.1 using HCl and the osmolarity was adjusted to 305±5 mosmol/L using NMDG. The solution was bubbled with 95% O2/5% CO2 prior to use. Coronal striatum slices were cut in 250-[…]m thickness with a vibratome slicer (Leica, VT1200 S), and then incubated in artificial cerebrospinal fluid (aCSF) saturated with 95% O2/5% CO2 for at least 45 min at 37° C. before recording. The aCSF contains (in mM) 125 NaCl, 1.25 KCl, 25 NaHCO3, 1.25 KH2PO4, 25 D-Glucose, 2 CaCl2) and 1 MgCl2, supplemented with 2 mM Na-pyruvate, 3 mM Myo-inositol and 0.4 mM L-ascorbic acid.
The acute striatum slice was transferred to the recording chamber with a constant perfusion of oxygenized aCSF at the rate of 3 ml/min. Neurons were visualized using an upright microscope (Olympus, BX-51) with a 40× water immersion objective at room temperature (˜25° C.). […] Neurons were quickly visualized under fluorescence microscope and then patch clamp were achieved under infrared light illumination and CCD camera. […]

hM3Dq [2] = target: T1, hM3Dq; experiment: Chemogenetic manipulation of BG direct pathway in mice with hM3Dq: rotations, nigral c-Fos; type: in vivo; details: for c-Fos+ cells in the SNr: AAV8R12-G88P3-HA-hM3Dq; for rotation behavior (FIG. 6C), mean±SEM: control vector AAV8R12-G88P3-EYFP, n=5, no effect
Method: Mice were anesthetized with sodium pentobarbital (Nembutal; 80 mg/kg, i.p.), and then placed into a stereotaxic device (KOPF). Eye cream was applied on both corneas to avoid dehydration. The skull above the targeted areas was thinned with a dental drill and carefully removed. Injections were conducted with a 10 μL syringe connected to a 33-Gauge needle (Neuros; Hamilton), using a microsyringe pump (Legato 130, KD Scientific). A total volume of 200 nL virus was injected into the SNr at a speed of 20 nL/min. The coordinates for the SNr were 3.4 mm posterior, 1.3 mm lateral, 4.8 mm ventral to the bregma.
Mice that were used in the behavioral experiments were then implanted with guide cannulas (KOPF) unilaterally aiming at the dorsomedial striatum (0.5 mm anterior, 1.5 mm lateral, 3.5 mm ventral to the bregma). The cannulas were fixed to the skull with dental cement. Stainless steel obturators were inserted into the guide cannulas and were replaced every other day to maintain the patency until infusions were made. Mice were allowed to recover from the surgery for at least 3 weeks before further studies.
Labeling specificity of the retrograde AAV tracers was examined. […] To explore the functional features of retrograde AAV-labeled cells, AAV8R12-G88P3-HA-hM3Dq, which enables neuronal excitation upon clozapine N-oxide (CNO) administration, were injected into the right SNr of C57BL/6J mice. […] Based on the observed infection patterns of retrograde AAV, it was reasoned that the ipsiversive rotations were a consequence of the activation of the right SNr, which is a major inhibitory output center of the BG and was labeled by the locally injected AAV.
Mice were individually handled for 10-20 seconds per day for at least 5 days to habituate them to the experimenter. The open field test was conducted in a test apparatus (50 cm×50 cm×50 cm) with an HD digital camera (Sony) positioned above the arena. On day one, mice were habituated to the apparatus for 10 minutes. On day 2, mice were administrated saline (0.1 mL i.p. or 200 nL intracranially [i.e.] through the guide cannulas). On day 3, mice were administrated with Clozapine-N-oxide (CNO, Hello Bio, HB1807; 0.3 mg/kg i.p. or 200 nL at 100 μM i.e.). All behavioral tests were conducted 30 minutes after injection. During the test, mice were allowed to freely explore the apparatus for 10 minutes. The behavioral data were analyzed with ANY-maze software (Stoelting Co.).

T1 sequence (P20309 whole entry Y149C/A239G): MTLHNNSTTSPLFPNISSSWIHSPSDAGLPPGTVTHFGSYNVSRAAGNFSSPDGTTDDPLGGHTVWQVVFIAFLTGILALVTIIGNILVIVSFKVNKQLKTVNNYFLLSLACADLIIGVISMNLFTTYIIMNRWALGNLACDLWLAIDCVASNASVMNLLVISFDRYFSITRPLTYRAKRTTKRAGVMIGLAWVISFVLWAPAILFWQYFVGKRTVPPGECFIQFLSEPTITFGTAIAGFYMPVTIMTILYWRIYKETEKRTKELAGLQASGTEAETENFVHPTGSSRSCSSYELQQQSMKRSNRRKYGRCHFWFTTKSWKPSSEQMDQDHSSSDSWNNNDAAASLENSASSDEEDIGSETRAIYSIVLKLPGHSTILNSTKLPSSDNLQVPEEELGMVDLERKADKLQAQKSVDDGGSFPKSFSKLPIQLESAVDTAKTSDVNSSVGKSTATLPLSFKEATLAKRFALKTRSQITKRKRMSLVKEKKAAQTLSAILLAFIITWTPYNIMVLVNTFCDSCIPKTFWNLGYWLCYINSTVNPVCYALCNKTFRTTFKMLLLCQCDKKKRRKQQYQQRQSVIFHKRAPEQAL

C[N+]1([O-])CCN(C2=Nc3cc(Cl)ccc3Nc3ccccc32)CC1 [CNO, Clozapine-N-oxide] was tested, and the “excitability of transduced MSNs upon CNO” value (hM3Dq [1]) was “augmentation of excitability”, the “rotations (FIG. 6A), mean±SEM; CNO induced ipsiversive rotations” value (hM3Dq [2]; AAV8R12-G88P3-HA-hM3Dq nigral, CNO i.p., saline 45.25±4.128, n=8) was 87.84±4.666 and the “rotations (FIG. 6A), mean±SEM; CNO induced contraversive rotations” value (hM3Dq [2]; AAV8R12-G88P3-HA-hM3Dq nigral, CNO intracranial into dorsomedial striatum, saline 49.63±5.879, n=8) was 15.08±3.435. The “c-Fos+ cells in the SNr” value (hM3Dq [2]; intracranial CNO infusion) was “No significant changes in the number of nigral c-Fos+ cells”, the “c-Fos+ cells in the SNr” value (hM3Dq [2]; intraperitoneal CNO) was “significant increase in c-Fos+ cells in the right SNr” and the “rotation behavior (FIG. 6C), mean±SEM” value (hM3Dq [2]; CNO i.p., saline 47.08±10.5) was 44.72±10.89. The “rotation behavior (FIG. 6C), mean±SEM” value (hM3Dq [2]; CNO intracranial, saline 54.22±8.766) was 61.39±5.774.
